Numbered stars: 1 amine (or outer) side, 2 acyl side, 3 side chain; on linkers, the order of the positions; unused ones are H or OH. Side chains are listed from the residue outwards. Peptide text beside a SMILES is read from it. * marks the point of attachment. C20 diacid = O=C(O)CCCCCCCCCCCCCCCCCCC(=O)*; γGlu = O=C(O)[C@H](CCC(=O)[*:2])N[*:1]
Assays:
[1] = target: T1, Amylin receptor AMY3; CALCR/RAMP3 (Homo sapiens, UniProt O60896+P30988); assay: Agonist activity at human amylin receptor expressed in BHK570 cells co-expressing RAMP3 assessed as increase in intracellular cAMP concentration incubated for 3 hrs in absence of albumin by CRE luciferase reporter gene assay; type: functional, cell-based
T1 sequence (P30988 whole entry): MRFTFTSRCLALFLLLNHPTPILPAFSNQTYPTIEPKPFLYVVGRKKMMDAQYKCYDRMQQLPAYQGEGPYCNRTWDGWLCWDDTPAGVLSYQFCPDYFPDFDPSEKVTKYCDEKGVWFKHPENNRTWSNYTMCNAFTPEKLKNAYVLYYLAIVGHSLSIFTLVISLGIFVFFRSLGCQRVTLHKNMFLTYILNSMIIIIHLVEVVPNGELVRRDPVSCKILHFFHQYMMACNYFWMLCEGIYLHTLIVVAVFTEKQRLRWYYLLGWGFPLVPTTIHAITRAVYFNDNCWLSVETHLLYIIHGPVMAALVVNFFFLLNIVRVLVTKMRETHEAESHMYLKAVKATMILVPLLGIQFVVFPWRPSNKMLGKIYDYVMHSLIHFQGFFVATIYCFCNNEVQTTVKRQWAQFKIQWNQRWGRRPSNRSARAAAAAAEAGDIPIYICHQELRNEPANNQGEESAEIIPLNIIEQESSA
T1 sequence (O60896 whole entry): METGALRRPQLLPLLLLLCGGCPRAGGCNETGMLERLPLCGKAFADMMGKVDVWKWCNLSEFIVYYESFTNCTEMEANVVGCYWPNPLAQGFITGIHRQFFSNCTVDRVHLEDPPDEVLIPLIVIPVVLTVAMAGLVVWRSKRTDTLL

[2] = target: T2, Calcitonin receptor (Homo sapiens, UniProt P30988); assay: Agonist activity at human calcitonin receptor expressed in BHK570 cells assessed as increase in intracellular cAMP concentration incubated for 3 hrs in absence of albumin by CRE luciferase reporter gene assay; type: functional, cell-based
T2 sequence (P30988 whole entry): T1 sequence (P30988 whole entry)

[3] = target: T1, Amylin receptor AMY3; CALCR/RAMP3; assay: Agonist activity at human amylin receptor expressed in BHK570 cells co-expressing RAMP3 assessed as increase in intracellular cAMP concentration incubated for 3 hrs in presence of 10% FBS by CRE luciferase reporter gene assay; type: functional, cell-based
[4] = target: T2, Calcitonin receptor; assay: Agonist activity at human calcitonin receptor expressed in BHK570 cells assessed as increase in intracellular cAMP concentration incubated for 3 hrs in presence of 10% FBS by CRE luciferase reporter gene assay; type: functional, cell-based
[5] = Solubility in 100 mM glycylglycine buffer at pH 3.0 incubated for 18 hrs by UPLC analysis; type: physicochemical
[6] = Solubility in 100 mM glycylglycine buffer at pH 4.0 incubated for 18 hrs by UPLC analysis; type: physicochemical
[7] = Solubility in 100 mM bistrispropane buffer at pH 6.0 incubated for 18 hrs by UPLC analysis; type: physicochemical
[8] = Solubility in 100 mM glycylglycine buffer at pH 5.0 incubated for 18 hrs by UPLC analysis; type: physicochemical
[9] = Solubility in 100 mM bistrispropane buffer at pH 6.5 incubated for 18 hrs by UPLC analysis; type: physicochemical
[10] = Solubility in 100 mM bistrispropane buffer at pH 7.0 incubated for 18 hrs by UPLC analysis; type: physicochemical
[11] = Solubility in 100 mM bistrispropane buffer at pH 7.5 incubated for 18 hrs by UPLC analysis; type: physicochemical
[12] = Solubility in 100 mM bistrispropane buffer at pH 8.0 incubated for 18 hrs by UPLC analysis; type: physicochemical
[13] = target: T1, Amylin receptor AMY3; CALCR/RAMP3; assay: Displacement of [125I]-labeled rat amylin from human amylin receptor expressed in BHK570 cell membranes co-expressing RAMP3 incubated for 120 mins by scintillation proximity assay
[14] = target: T2, Calcitonin receptor; assay: Displacement of [125I]-labeled human calcitonin from human calcitonin receptor expressed in BHK tkts13 cell membranes incubated for 1 hr by scintillation proximity assay
[15] = target: T3, Amylin receptor AMY3; CALCR/RAMP3 (Rattus norvegicus, UniProt P32214+Q9JJ73); assay: Displacement of [125I]-labeled rat amylin from rat amylin receptor expressed in BHK tkts13 cell membranes co-expressing RAMP3 incubated for 120 mins by scintillation proximity assay
T3 sequence (P32214 whole entry): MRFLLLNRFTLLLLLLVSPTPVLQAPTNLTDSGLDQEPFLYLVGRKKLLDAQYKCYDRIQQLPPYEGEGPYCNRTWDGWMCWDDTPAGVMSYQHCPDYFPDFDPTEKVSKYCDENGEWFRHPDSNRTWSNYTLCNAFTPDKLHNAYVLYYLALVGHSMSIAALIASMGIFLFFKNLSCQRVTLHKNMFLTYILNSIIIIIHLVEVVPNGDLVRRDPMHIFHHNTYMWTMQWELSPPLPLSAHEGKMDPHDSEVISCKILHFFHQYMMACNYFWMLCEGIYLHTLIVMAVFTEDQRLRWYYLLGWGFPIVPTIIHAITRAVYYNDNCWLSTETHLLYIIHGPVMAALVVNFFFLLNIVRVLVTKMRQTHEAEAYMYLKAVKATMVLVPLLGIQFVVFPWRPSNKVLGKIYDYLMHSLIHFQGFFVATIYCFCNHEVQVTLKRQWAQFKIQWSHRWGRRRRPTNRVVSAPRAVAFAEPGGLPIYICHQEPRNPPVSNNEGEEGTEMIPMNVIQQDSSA
T3 sequence (Q9JJ73 whole entry): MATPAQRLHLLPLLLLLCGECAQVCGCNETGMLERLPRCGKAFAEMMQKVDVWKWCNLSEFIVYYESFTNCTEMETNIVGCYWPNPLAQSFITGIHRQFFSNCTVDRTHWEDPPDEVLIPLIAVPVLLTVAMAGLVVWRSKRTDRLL

[16] = target: T1, Amylin receptor AMY3; CALCR/RAMP3; assay: Displacement of [125I]-labeled rat amylin from human amylin receptor expressed in BHK tkts13 whole cells co-expressing RAMP3 incubated for 60 mins by scintillation proximity assay; type: cell-based

Row | EC50 [1] | EC50 [2] | EC50 [3] | EC50 [4] | solubility at 18 h [5] | solubility at 18 h [6] | solubility at 18 h [7] | solubility at 18 h [8] | solubility at 18 h [9] | solubility at 18 h [10] | solubility at 18 h [11] | solubility at 18 h [12] | IC50 [13] | IC50 [14] | IC50 [15] | IC50 [16] | SMILES
1 | 21 pM | 28 pM | 100 pM | 44 pM | ≥ 200 µM | ≥ 200 µM | ≥ 200 µM | ≥ 200 µM | ≥ 200 µM | ≥ 200 µM | ≥ 200 µM | ≥ 200 µM | 74 pM | 46 pM | 115 pM |  | CC(=O)N[C@@H](C)C(=O)N[C@@H](CO)C(=O)N[C@@H](CCC(=O)O)C(=O)N[C@@H](CC(C)C)C(=O)N[C@@H](CO)C(=O)N[C@H](C(=O)N[C@@H](C)C(=O)N[C@@H](C)C(=O)N[C@@H](CC(C)C)C(=O)NCC(=O)N[C@@H](CCCNC(=N)N)C(=O)N[C@@H](CC(C)C)C(=O)N[C@@H](CO)C(=O)N[C@@H](C)C(=O)N[C@@H](CCCCNC(=O)CC[C@H](NC(=O)CCCCCCCCCCCCCCCCCCC(=O)O)C(=O)O)C(=O)N[C@@H](CC(C)C)C(=O)N[C@@H](Cc1cnc[nH]1)C(=O)N[C@@H](CCC(=O)O)C(=O)N[C@@H](CC(C)C)C(=O)N[C@@H](C)C(=O)N[C@H](C(=O)N[C@@H](CC(C)C)C(=O)N1CCC[C@H]1C(=O)N[C@@H](CCCNC(=N)N)C(=O)N[C@H](C(=O)N[C@@H](CCC(=O)O)C(=O)N[C@H](C(=O)NCC(=O)N[C@@H](CO)C(=O)NCC(=O)N[C@@H](CO)C(=O)N1CCC[C@H]1C(N)=O)[C@@H](C)O)[C@@H](C)O)[C@@H](C)O)[C@@H](C)O (Ac-ASELSTAALGRLSAK([γGlu-C20 diacid])LHELATLPRTETGSGSP-NH2)
2 |  | 41 pM | 100 pM | 37 pM | ≥ 200 µM | ≥ 200 µM | ≥ 200 µM | ≥ 200 µM | ≥ 200 µM | ≥ 200 µM | ≥ 200 µM | ≥ 200 µM | 141 pM | 102 pM | 26 pM | 2020 pM | CC(C)C[C@H](NC(=O)[C@H](C)NC(=O)[C@H](C)NC(=O)[C@@H](NC(=O)[C@H](CO)NC(=O)[C@H](CC(C)C)NC(=O)[C@H](CCC(=O)O)NC(=O)[C@H](CO)NC(=O)[C@H](C)NC(=O)CC[C@H](NC(=O)CCCCCCCCCCCCCCCCCCC(=O)O)C(=O)O)[C@@H](C)O)C(=O)NCC(=O)N[C@@H](CCCNC(=N)N)C(=O)N[C@@H](CC(C)C)C(=O)N[C@@H](CO)C(=O)N[C@@H](C)C(=O)N[C@@H](CCC(=O)O)C(=O)N[C@@H](CC(C)C)C(=O)N[C@@H](Cc1cnc[nH]1)C(=O)N[C@@H](CCC(=O)O)C(=O)N[C@@H](CC(C)C)C(=O)N[C@@H](C)C(=O)N[C@H](C(=O)N[C@@H](Cc1ccc(O)cc1)C(=O)N1CCC[C@H]1C(=O)N[C@@H](CCCNC(=N)N)C(=O)N[C@H](C(=O)N[C@@H](CCC(=O)O)C(=O)N[C@H](C(=O)NCC(=O)N[C@@H](CO)C(=O)NCC(=O)N[C@@H](C)C(=O)N1CCC[C@H]1C(N)=O)[C@@H](C)O)[C@@H](C)O)[C@@H](C)O ({C20 diacid-γGlu}-ASELSTAALGRLSAELHELATYPRTETGSGAP-NH2)
